# How the values were obtained:
# [1] = test system: human exocrine (acinar and ductal) cells; assay: qRT-PCR gene expression in human exocrine (acinar and ductal) cells from a non-diabetic donor; type: cell-based; conditions: 48 hours: GSK126 10 μM, CPI-1205 5 μM, ursolic acid 5 μM, GSK343 5 μM, EPZ-6438 5 μM
# Procedure: (§1) Exocrine cells from a non-diabetic human and a marmoset were cultured and assayed in Miami/CMRL medium. The human exocrine cells were sourced from the Islet Transplant Unit of St Vincent's Institute for Medical Research. The marmoset exocrine cells were sourced from the Australian Regenerative Medicine Institute (ARMI), Monash University. Miami media is based on CMRL 1066 media (Connaught Medical Research Lab) supplemented with: Insulin, Transferrin & Selenium (ITS), human serum, Vitamin E, sodium pyruvate, zinc and HEPES. Pharmacological inhibition of EZH2 and gene expression analysis were performed as described in Example 1.
# [2] = test system: H3K27me3 or H3K9/14ac content at the promoters of INS-IGF2, NGN3 and PDX1 in human pancreatic ductal epithelial cells; assay: Quantitative PCR chromatin immunoprecipitation (q-PCR ChIP) after 2- and 7-day stimulation; type: cell-based; conditions: 7 days (FIG. 12c)
# Procedure: Approximately 5×10^6 cells were fixed in 1% formaldehyde for 10 minutes, with a further 10-minute incubation in 0.125M glycine to quench the cross-linking reaction. The fixed cell pellet was lysed following resuspension and homogenization in sodium dodecyl (lauryl) sulphate (SOS) lysis buffer (1% SOS, 10 mM EDTA, 50 mM Tris-HCl pH 8.1) with a protease inhibitor cocktail (Roche Diagnostics GmBH, Mannheim, Germany) included. Samples were incubated on ice for 5 minutes following which sonication was performed to shear chromatin between 200-600 bp. Sonicated chromatin was resuspended in ChIP Dilution Buffer (0.01% SOS, 1.1% Triton X-100, 1.2 mM EDTA, 16.7 mM Tris-HCl pH 8.0 and 167 mM NaCl). 20 μl of DynabeadsR Protein A (Invitrogen, Carlsbad, CA, USA) was added to each sample and pre-cleared. Overnight incubation at 4° C. with H3K27me3 or H3K9/14ac antibody was used for immunoprecipitation of chromatin, as previously described. Immunoprecipitates were collected by magnetic isolation and washed sequentially with low salt and high salt buffers. Immunoprecipitated DNA was then eluted from solution with 0.1 M NaHCO3 containing 1% SIDS. Protein-DNA cross-links were reversed by incubation of samples in Proteinase K (Sigma, St. Louis, MO, USA) for 2 hours at 62° C. DNA was purified using a Qiagen MinElute column (Qiagen Inc., Valencia, CA, USA). H3K27me3 or H3K9/14ac content at the promoters of the INS-IGF2, NGN3 and PDX1 genes were assessed by qPCR using primers designed from the integrative ENCODE resource.
# EZH2 = target: T1, EZH2 (Homo sapiens, UniProt Q15910); conditions: assay of methylation activity as described in the cited paper for each compound; cited from earlier work
# T1 construct: Flag
# [3] = test system: Human pancreatic ductal epithelial cells; assay: qRT-PCR after 2- and 7-day EZH2 inhibitor stimulation of human pancreatic ductal epithelial cells; type: cell-based; conditions: GSK-126 10 μM, Triptolide 20 nM
# Procedure: Human pancreatic ductal epithelial cells were purchased from AddexBio and cultured according to the recommended protocols. Cells were cultured in complete Keratinocyte Serum-Free Media (supplemented with human recombinant EGF, Bovine Pituitary Extract and Antibiotic-Antimycotic [Gibco]. All cell cultures were grown and maintained in a 37° C., 5% C02 environment using a tissue culture incubator. Once cells reached 70-80% confluency, passaging was performed using 0.05% Trypsin EDTA (Sigma). […] Vehicle control was DMSO. Cells were treated over 2 main timepoints, with harvests occurring following 2, and 7 days. For the 2-day time point, cells were seeded and left to adhere in plates for 24 hours. Treatment was initiated with the first dose made up in complete K-SFM. The second dose was delivered 24 hours later following a media change. For the longer period of 7 days, cells were initially seeded in 10 cm plates, with doses delivered on alternate days following the initial period of 24 hours. […] Ct values of experimental genes were normalized to housekeeping gene [MUT]. Fold change of mRNA abundance was calculated by normalizing drug treated values to vehicular controls. […] RNA was isolated using the RNeasy Kit according to the manufacturer's directions. Following measurement of RNA concentration using a QIAxpert System, 1 μg of RNA was used for cDNA synthesis by a high-capacity cDNA Reverse Transcription Kit (Applied Biosystems). The resulting cDNA reaction mix was diluted 1:6 to make up the final template cDNA used subsequently. […] Ct values of experimental genes were normalized to housekeeping gene [MUT]. Fold change of mRNA abundance was calculated by normalizing drug treated values to vehicular controls.
# [4] = test system: Human pancreatic ductal epithelial cells; assay: Glucose stimulated insulin secretion assay (ELISA); type: cell-based
# Procedure: 5×10^5 cells were seeded in 12-well plates and allowed to adhere for 24 hours. […] Next, cells were cultured in 28 mM (High) glucose Krebs Buffer solution and incubated for 1 hour to obtain the glucose stimulated insulin secretion. Supernatant was collected and Ultrasensitive Insulin ELISA (Mercodia) was used to determine the concentration of insulin according to manufacturer's instructions. Fold change of insulin secreted by cells were calculated by adjusting to cells stimulated with EZH2 inhibitors for insulin concentrations compared to control.
# [5] = test system: marmoset exocrine (acinar and ductal) cells; assay: qRT-PCR gene expression in marmoset exocrine (acinar and ductal) cells; type: cell-based; conditions: 48 hours: GSK126 10 μM, ursolic acid 5 μM
# Procedure: as §1
# [6] = test system: Human immortalised ductal cell line; assay: qRT-PCR gene expression in human immortalised ductal cell line; type: cell-based; conditions: ursolic acid 1, 2.5 or 5 μM; GSK126 5, 10 or 20 μM
# Procedure: Human immortalised ductal cell line (Catalog #: T0018001, Addexbio) was cultured and assayed in Keratinocyte SFM (serum-free medium) (Catalog number 17005042, ThermoFisher Scientific, USA). Pharmacological inhibition of EZH2 and gene expression analysis were performed as described in Example 1.
# T1 sequence (Q15910 whole entry): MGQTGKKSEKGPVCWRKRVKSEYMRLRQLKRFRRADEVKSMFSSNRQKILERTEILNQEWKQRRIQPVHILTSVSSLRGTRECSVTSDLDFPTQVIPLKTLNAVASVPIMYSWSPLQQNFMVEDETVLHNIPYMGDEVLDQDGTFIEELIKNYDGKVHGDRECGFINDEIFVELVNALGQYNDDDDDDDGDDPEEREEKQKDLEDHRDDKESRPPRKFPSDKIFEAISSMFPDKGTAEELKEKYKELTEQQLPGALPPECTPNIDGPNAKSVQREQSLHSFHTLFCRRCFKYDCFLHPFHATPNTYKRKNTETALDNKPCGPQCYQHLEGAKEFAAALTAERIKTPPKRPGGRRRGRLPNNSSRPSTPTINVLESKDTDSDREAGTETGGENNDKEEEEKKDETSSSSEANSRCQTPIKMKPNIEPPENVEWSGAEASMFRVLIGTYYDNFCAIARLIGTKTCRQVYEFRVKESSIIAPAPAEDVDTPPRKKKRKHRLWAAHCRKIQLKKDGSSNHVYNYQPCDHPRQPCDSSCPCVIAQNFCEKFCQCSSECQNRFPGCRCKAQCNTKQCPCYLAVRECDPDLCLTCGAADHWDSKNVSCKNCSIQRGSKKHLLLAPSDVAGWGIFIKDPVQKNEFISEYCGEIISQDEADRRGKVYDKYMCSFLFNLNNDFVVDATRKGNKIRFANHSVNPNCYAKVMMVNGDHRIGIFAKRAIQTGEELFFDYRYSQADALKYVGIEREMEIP
# T1 sequence (O75530 whole entry partner): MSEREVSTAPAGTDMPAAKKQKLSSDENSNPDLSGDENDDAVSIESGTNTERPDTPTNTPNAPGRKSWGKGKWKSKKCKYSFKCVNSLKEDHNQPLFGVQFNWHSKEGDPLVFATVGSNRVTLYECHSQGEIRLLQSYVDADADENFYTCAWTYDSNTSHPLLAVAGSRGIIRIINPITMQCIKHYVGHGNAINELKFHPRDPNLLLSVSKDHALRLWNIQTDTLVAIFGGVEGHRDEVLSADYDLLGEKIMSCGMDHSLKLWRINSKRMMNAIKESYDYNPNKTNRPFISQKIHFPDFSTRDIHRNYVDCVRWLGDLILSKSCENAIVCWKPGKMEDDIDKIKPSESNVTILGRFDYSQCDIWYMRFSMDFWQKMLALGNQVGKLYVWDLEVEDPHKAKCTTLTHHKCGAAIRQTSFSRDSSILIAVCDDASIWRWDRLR
# T1 sequence (Q15022 whole entry partner): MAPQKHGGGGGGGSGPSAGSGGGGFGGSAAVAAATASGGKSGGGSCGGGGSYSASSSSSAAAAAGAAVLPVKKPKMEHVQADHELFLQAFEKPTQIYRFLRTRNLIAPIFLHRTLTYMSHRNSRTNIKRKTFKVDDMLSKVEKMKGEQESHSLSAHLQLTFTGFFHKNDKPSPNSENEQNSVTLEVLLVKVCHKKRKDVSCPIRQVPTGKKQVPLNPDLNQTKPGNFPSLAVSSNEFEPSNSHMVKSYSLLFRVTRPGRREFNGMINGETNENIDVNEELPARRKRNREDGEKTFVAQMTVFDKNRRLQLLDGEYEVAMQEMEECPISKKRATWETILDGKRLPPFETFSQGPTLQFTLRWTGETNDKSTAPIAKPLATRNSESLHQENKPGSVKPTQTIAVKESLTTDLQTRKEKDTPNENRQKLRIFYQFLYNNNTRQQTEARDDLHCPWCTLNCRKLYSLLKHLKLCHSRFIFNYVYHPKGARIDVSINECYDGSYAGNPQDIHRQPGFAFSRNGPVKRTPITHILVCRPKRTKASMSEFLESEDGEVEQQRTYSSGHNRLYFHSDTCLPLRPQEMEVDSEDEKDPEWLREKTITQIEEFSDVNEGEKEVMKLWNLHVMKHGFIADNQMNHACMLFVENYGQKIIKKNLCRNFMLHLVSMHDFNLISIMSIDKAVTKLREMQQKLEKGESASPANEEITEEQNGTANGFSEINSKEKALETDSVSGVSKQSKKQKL
# T1 sequence (Q6ZN18 whole entry partner): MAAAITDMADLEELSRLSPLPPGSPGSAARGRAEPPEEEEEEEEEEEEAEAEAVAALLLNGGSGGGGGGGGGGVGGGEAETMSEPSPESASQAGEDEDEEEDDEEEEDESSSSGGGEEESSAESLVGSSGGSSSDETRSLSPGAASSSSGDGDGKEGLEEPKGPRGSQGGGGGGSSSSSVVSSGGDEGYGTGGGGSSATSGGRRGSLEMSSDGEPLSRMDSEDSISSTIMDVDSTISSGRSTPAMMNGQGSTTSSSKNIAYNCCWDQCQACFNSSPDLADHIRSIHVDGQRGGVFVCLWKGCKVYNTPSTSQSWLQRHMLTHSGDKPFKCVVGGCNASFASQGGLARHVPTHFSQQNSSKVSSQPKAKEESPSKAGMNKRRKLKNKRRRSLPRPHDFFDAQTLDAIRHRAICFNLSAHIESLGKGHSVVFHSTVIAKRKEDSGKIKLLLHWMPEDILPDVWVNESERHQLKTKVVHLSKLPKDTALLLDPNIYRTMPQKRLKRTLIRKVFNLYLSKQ
# T1 sequence (Q09028 whole entry partner): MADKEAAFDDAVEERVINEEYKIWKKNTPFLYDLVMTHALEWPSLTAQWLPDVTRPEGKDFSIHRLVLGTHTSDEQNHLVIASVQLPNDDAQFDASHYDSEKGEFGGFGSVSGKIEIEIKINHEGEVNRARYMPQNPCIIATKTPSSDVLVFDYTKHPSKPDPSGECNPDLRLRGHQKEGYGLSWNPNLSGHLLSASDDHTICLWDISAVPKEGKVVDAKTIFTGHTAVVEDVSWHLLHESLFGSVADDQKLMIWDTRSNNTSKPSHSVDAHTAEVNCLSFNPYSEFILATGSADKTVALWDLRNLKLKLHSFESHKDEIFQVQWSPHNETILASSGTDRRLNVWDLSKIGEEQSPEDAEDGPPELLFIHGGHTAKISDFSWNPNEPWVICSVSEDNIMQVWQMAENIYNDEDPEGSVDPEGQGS
smiles,measurement,setting,value
"COc1cc(C)[nH]c(=O)c1CNC(=O)c1c(C)n([C@H](C)C2CCN(CC(F)(F)F)CC2)c2ccccc12 [CPI-1205, N-[(1,2-Dihydro-4-methoxy-6-methyl-2-oxo-3-pyridinyl)methyl]-2-methyl-1-[(1R)-1-[1-(2,2,2-trifluoroethyl)-4-piperidinyl]ethyl]-1H-indole-3-carboxamide]","mRNA expression of Insulin, Pdx1 and Ngn3",[1],"stimulated expression of one, two or all of Insulin, Pdx1 and Ngn3"
"CCN(c1cc(-c2ccc(CN3CCOCC3)cc2)cc(C(=O)NCc2c(C)cc(C)[nH]c2=O)c1C)C1CCOCC1 [EPZ-6438, N-[(1,2-Dihydro-4,6-dimethyl-2-oxo-3-pyridinyl)methyl]-5-[ethyl(tetrahydro-2H-pyran-4-yl)amino]-4-methyl-4′-(4-morpholinylmethyl)[1,1′-biphenyl]-3-carboxamide]","mRNA expression of Insulin, Pdx1 and Ngn3",[1],"stimulated expression of one, two or all of Insulin, Pdx1 and Ngn3"
same,H3K27me3 content of PDX1,[2],reduced
"CCCc1cc(C)[nH]c(=O)c1CNC(=O)c1cc(-c2ccnc(N3CCN(C)CC3)c2)cc2c1cnn2C(C)C [GSK343, N-[(1,2-Dihydro-6-methyl-2-oxo-4-propyl-3-pyridinyl)methyl]-1-(1-methylethyl)-6-[2-(4-methyl-1-piperazinyl)-4-pyridinyl]-1H-indazole-4-carboxamide]","mRNA expression of Insulin, Pdx1 and Ngn3",[1],"stimulated expression of one, two or all of Insulin, Pdx1 and Ngn3"
same,IC50,EZH2,4 nM
"CC(C)[C@]12O[C@H]1[C@@H]1O[C@]13[C@]1(O[C@H]1C[C@H]1C4=C(CC[C@@]13C)C(=O)OC4)[C@@H]2O [Triptolide, (3bS,4aS,5aS,6R,6aR,7aS, 7bS,8aS,8bS)-3b,4,4a,6,6a,7a,7b,8b,9,10-Decahydro-6-hydroxy-8b-methyl-6a-(1-methylethyl)trisoxireno[4b,5: 6,7:8a,9]phenanthro[1,2-c]furan-1(3H)-one]",MAFA mRNA levels,[3]; 2-day point,increased in a statistically significant manner
same,CK19 expression,"[3]; 2 days, EPZ6438 1 μM",statistically significant decreases
same,NGN3 mRNA levels,"[3]; 2 days, EPZ6438 1 μM",significantly elevated
same,"insulin transcripts, mature mRNA (INS)","[3]; 2 days, EPZ6438 1 μM",elevations
same,"insulin transcripts, unprocessed heterogenous nuclear form (INS hnRNA)","[3]; 2 days, EPZ6438 1 μM",elevations
same,NGN3 mRNA levels,"[3]; 7 days, EPZ6438 1 μM",Further increases
same,"insulin transcripts, mature mRNA (INS)","[3]; 7 days, EPZ6438 1 μM",even further increases
same,"insulin transcripts, unprocessed heterogenous nuclear form (INS hnRNA)","[3]; 7 days, EPZ6438 1 μM",even further increases
same,"insulin concentration after incubation in high-glucose media (28 mM glucose, 1 hour)","[4]; 2-day stimulation (FIG. 13d), GSK126 10 μM, EPZ6438 1 μM, Triptolide 20 nM, not observed in DMSO control",significant elevations
same,Release of insulin (glucose stimulated),[4]; 7 days stimulation (FIG. 13e),maintained
"C[C@H]1[C@H](C)CC[C@]2(C(=O)O)CC[C@]3(C)C(=CC[C@@H]4[C@@]5(C)CC[C@H](O)C(C)(C)[C@@H]5CC[C@]43C)[C@H]12 [Ursolic acid, 3β-Hydroxyurs-12-en-28-oic acid]","mRNA expression of Insulin, Pdx1 and Ngn3",[1],"stimulated expression of one, two or all of Insulin, Pdx1 and Ngn3"
same,Insulin mRNA expression,[5],stimulated expression
same,Pdx1 mRNA expression,[5],stimulated expression
same,Insulin mRNA expression,[6],stimulated expression
same,Ngn3 mRNA expression,[6],stimulated expression
same,Pdx1 mRNA expression,[6],stimulated expression

# Source: patent US20250235486A1, “Method of Producing Insulin-Producing Cells” (Monash University, priority 2022, published 2025)
